# Biological target: Helios (IKZF2) (Homo sapiens, UniProt Q96SW2+Q9UKS7)
# Assay: Screening of Helios protein degraders using Nano-Glo HiBiT cell line (HiBiT-IKZF2)
# Format: cell-based
# Details: for remaining activity at 1 µM: compound 1 μM, read-out: HiBiT-IKZF2 Residual amount of Helios (%) 1 μM; for remaining activity at 1 µM / remaining activity at 10 µM: 6 hours, HiBiT-Helios knock-in Jurkat cells; for remaining activity at 10 µM: compound 10 μM, read-out: HiBiT-IKZF2 Residual amount of Helios (%) 10 μM
# Description: To observe intracellular degradation of Helios, the Nano-Glo HiBiT detection system (Promega) was employed. […] The cells expressing Helios fused with HiBiT were validated using the Nano-Glo HiBiT detection system (Promega) according to a predetermined protocol, isolated as single cells, and cultured in complete medium to establish a monoclonal cell line.
# After 6 hours, the Nano-Glo HiBiT detection reagent was added to each well in an equal volume to the cell culture medium and incubated at room temperature for 10 minutes. Following incubation, the HiBiT luminescence signal was measured using a microplate reader (Perkin Elmer).
# Helios (IKZF2), sequence (Q9UKS7 whole entry): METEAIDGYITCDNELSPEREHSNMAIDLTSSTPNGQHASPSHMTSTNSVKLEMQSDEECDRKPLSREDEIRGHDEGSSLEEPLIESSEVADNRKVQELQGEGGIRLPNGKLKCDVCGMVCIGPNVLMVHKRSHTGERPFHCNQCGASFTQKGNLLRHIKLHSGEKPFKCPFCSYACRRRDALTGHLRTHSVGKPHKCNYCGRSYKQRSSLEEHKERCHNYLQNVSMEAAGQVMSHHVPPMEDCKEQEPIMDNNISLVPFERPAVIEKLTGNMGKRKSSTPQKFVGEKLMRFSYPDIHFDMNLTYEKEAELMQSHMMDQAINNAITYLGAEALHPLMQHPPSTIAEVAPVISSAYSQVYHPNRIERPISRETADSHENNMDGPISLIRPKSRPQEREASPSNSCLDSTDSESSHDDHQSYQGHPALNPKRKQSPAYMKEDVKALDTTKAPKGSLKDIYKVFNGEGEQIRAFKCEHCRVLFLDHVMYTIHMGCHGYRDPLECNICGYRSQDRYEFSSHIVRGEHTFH
# Helios (IKZF2), sequence (Q96SW2 whole entry): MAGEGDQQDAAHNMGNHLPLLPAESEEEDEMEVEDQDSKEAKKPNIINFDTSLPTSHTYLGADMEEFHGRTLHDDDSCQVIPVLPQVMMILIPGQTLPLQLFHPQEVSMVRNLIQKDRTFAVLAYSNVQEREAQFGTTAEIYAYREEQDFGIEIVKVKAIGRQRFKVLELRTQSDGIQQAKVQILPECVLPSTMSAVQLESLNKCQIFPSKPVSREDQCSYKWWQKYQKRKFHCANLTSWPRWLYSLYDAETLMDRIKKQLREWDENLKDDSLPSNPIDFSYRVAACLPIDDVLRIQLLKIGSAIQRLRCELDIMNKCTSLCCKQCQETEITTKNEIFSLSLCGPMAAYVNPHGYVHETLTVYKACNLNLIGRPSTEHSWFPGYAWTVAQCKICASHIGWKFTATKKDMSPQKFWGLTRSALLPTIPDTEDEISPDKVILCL
# Helios (IKZF2), sequence (Q16531 whole entry partner): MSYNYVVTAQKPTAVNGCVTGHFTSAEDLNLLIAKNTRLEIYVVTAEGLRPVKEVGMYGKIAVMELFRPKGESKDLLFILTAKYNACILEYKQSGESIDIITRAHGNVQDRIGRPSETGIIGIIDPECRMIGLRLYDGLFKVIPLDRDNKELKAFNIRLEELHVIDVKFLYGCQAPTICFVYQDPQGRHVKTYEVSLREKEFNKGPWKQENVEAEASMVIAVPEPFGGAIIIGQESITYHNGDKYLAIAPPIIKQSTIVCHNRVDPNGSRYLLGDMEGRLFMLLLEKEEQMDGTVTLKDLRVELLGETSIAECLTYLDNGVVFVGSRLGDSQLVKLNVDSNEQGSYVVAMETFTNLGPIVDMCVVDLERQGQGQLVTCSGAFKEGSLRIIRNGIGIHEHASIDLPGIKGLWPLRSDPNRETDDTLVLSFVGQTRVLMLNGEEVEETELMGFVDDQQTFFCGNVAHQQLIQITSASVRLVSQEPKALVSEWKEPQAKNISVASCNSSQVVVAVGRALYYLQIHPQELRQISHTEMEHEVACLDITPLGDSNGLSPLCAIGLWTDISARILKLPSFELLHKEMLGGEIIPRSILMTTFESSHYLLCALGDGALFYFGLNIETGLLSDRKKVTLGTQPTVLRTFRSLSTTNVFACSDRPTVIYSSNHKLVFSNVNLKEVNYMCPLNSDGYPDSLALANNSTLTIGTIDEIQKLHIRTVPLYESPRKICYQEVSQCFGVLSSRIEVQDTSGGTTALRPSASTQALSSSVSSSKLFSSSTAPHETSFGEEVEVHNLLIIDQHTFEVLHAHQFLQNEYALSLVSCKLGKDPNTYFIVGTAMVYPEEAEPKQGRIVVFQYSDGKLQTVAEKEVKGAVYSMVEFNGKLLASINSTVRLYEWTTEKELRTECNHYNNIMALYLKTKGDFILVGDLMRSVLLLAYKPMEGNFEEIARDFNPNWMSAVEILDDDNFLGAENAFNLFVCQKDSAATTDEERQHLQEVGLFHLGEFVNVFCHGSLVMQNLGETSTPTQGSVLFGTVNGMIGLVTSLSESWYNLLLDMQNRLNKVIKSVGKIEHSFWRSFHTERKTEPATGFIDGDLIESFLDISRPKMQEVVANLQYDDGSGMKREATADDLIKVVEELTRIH
remaining activity at 1 µM [%],remaining activity at 10 µM [%],"IKZF2 degradation activity (in words, comment on Table 1) (as shown in Table 1)",SMILES
73.6,72.4,–,"CCc1c(C(=O)N2CCC(c3ccc4c(c3)CN(C3CCC(=O)NC3=O)C4=O)CC2)[nH]c2ccccc12 (stereo not drawn) [Compound 29, 3-(5-(1-(3-ethyl-1H-indole-2-carbonyl)piperidin-4-yl)-1-oxoinsoindolin-2-yl)piperidine-2,6-dione]"
86.7,78.7,–,"COc1c(C(=O)N2CCC(c3ccc4c(c3)CN(C3CCC(=O)NC3=O)C4=O)CC2)[nH]c2ccccc12 (stereo not drawn) [Compound 30, 3-(5-(1-(3-methoxy-1H-indole-2-carbonyl)piperidin-4-yl)-1-oxoinsoindolin-2-yl)piperidine-2,6-dione]"
75,94.3,–,"Cc1c(C(=O)N2CCC(c3ccc4c(c3)CN(C3CCC(=O)NC3=O)C4=O)CC2)[nH]c2ncccc12 (stereo not drawn) [Compound 31, 3-(5-(1-(3-methyl-1H-picolo[2,3-b]pyridine-2-carbonyl)piperidin-4-yl)-1-oxoinsoindolin-2-yl)piperidine-2,6-dione]"
62.1,57.3,–,"Nc1ccc2cc(C(=O)N3CCC(c4ccc5c(c4)CN(C4CCC(=O)NC4=O)C5=O)CC3)[nH]c2c1 (stereo not drawn) [Compound 32, 3-(5-(1-(6-amino-1H-indole-2-carbonyl)piperidin-4-yl)-1-oxoinsoindolin-2-yl)piperidine-2,6-dione]"
71.3,64.4,–,"Cc1c(C(=O)N2CCC(c3ccc4c(c3)CN(C3CCC(=O)NC3=O)C4=O)CC2)[nH]c2ccc(Br)cc12 (stereo not drawn) [Compound 33, 3-(5-(1-(5-bromo-3-methyl-1H-indole-2-carbonyl)piperidin-4-yl)-1-oxoinsoindolin-2-yl)piperidine-2,6-dione]"
66.5,43.5,–,"O=C1CCC(N2Cc3cc(C4CCN(C(=O)c5[nH]c6ccccc6c5CN5CCOCC5)CC4)ccc3C2=O)C(=O)N1 (stereo not drawn) [Compound 34, 3-(5-(1-(3-(morpholinomethyl)-1H-indole-2-carbonyl)piperidin-4-yl)-1-oxoinsoindolin-2-yl)piperidine-2,6-dione]"
76.6,52.3,–,"O=Cc1c(C(=O)N2CCC(c3ccc4c(c3)CN(C3CCC(=O)NC3=O)C4=O)CC2)[nH]c2ccccc12 (stereo not drawn) [Compound 35, 2-(4-(2-(2,6-dioxopiperidin-3-yl)-1-oxoindolin-5-yl)piperidine-1-carbonyl)-1H-indole-3-carbaldehyde]"
50.9,40.6,–,"O=C1CCC(N2Cc3cc(C4CCN(C(=O)c5[nH]c6ccccc6c5Br)CC4)ccc3C2=O)C(=O)N1 (stereo not drawn) [Compound 36, 3-(5-(1-(3-bromo-1H-indole-2-carbonyl)piperidin-4-yl)-1-oxoinsoindolin-2-yl)piperidine-2,6-dione]"
99.6,77.5,–,"O=C1CCC(N2Cc3cc(C4CCN(C(=O)c5[nH]c6ccccc6c5F)CC4)ccc3C2=O)C(=O)N1 (stereo not drawn) [Compound 37, 3-(5-(1-(3-fluoro-1H-indole-2-carbonyl)piperidin-4-yl)-1-oxoinsoindolin-2-yl)piperidine-2,6-dione]"
80,65.1,–,"Cc1c(C(=O)N2CCC(c3ccc4c(c3)CN(C3CCC(=O)NC3=O)C4=O)CC2)[nH]c2ccc(Cl)cc12 (stereo not drawn) [Compound 38, 3-(5-(1-(5-chloro-3-methyl-1H-indole-2-carbonyl)piperidin-4-yl)-1-oxoinsoindolin-2-yl)piperidine-2,6-dione]"
92.2,74.5,–,"COc1cc2cc(C(=O)N3CCC(c4ccc5c(c4)CN(C4CCC(=O)NC4=O)C5=O)CC3)[nH]c2cc1OC (stereo not drawn) [Compound 40, 3-(5-(1-(5,6-dimethoxy-1H-indole-2-carbonyl)piperidin-4-yl)-1-oxoinsoindolin-2-yl)piperidine-2,6-dione]"
41.7,38.5,–,"O=C1CCC(N2Cc3cc(C4CCN(C(=O)c5cc6ccc(C(F)(F)F)cc6[nH]5)CC4)ccc3C2=O)C(=O)N1 (stereo not drawn) [Compound 41, 3-(1-oxo-5-(1-(6-(trifluoromethyl)-1H-indole-2-carbonyl)piperidin-4-yl)isoindolin-2-yl)piperidine-2,6-dione]"
13.9,13,–,"COc1ccc2c(C)c(C(=O)N3CCC(c4ccc5c(c4)CN(C4CCC(=O)NC4=O)C5=O)CC3)[nH]c2c1 (stereo not drawn) [Compound 42, 3-(5-(1-(6-methoxy-3-methyl-1H-indole-2-carbonyl)piperidin-4-yl)-1-oxoinsoindolin-2-yl)piperidine-2,6-dione]"
22.7,15.7,–,"Cc1c(C(=O)N2CCC(C#Cc3ccc4c(c3)CN(C3CCC(=O)NC3=O)C4=O)CC2)[nH]c2cc(Cl)ccc12 (stereo not drawn) [Compound 43, 3-(5-((1-(6-chloro-3-methyl-1H-indole-2-carbonyl)piperidin-4-yl)ethynyl)-1-oxoinsoindolin-2-yl)piperidine-2,6-dione]"
69.7,61.1,–,"Cc1c(C(=O)N2CCC(=Cc3ccc4c(c3)CN(C3CCC(=O)NC3=O)C4=O)CC2)[nH]c2cc(Cl)ccc12 (stereo not drawn) [Compound 44, 3-(5-((1-(6-chloro-3-methyl-1H-indole-2-carbonyl)piperidin-4-ylidene)methyl)-1-oxoinsoindolin-2-yl)piperidine-2,6-dione]"
70.3,58.2,–,"O=C1CCC(N2Cc3cc(C4CCN(C(=O)c5cc6ncc(Cl)cc6[nH]5)CC4)ccc3C2=O)C(=O)N1 (stereo not drawn) [Compound 45, 3-(5-(1-(6-chloro-1H-picolo[3,2-b]pyridine-2-carbonyl)piperidin-4-yl)-1-oxoinsoindolin-2-yl)piperidine-2,6-dione]"
58.1,47.4,–,"O=C1CCC(N2Cc3cc(C4CCN(C(=O)c5cc6cnc(Cl)cc6[nH]5)CC4)ccc3C2=O)C(=O)N1 (stereo not drawn) [Compound 46, 3-(5-(1-(6-chloro-1H-picolo[3,2-c]pyridine-2-carbonyl)piperidin-4-yl)-1-oxoinsoindolin-2-yl)piperidine-2,6-dione]"
–,76.6,–,"N#Cc1c(C(=O)N2CCC(c3ccc4c(c3)CN(C3CCC(=O)NC3=O)C4=O)CC2)[nH]c2ccccc12 (stereo not drawn) [Compound 51, 2-(4-(2-(2,6-dioxopiperidin-3-yl)-1-oxoindolin-5-yl)piperidine-1-carbonyl)-1H-indole-3-carbonitrile]"
–,26.8,–,"Cc1c(C(=O)N2CCC(c3ccc4c(c3)CN(C3CCC(=O)NC3=O)C4=O)CC2)[nH]c2cc(F)ccc12 (stereo not drawn) [Compound 54, 3-(5-(1-(6-fluoro-3-methyl-1H-indole-2-carbonyl)piperidin-4-yl)-1-oxoinsoindolin-2-yl)piperidine-2,6-dione]"
–,31.3,–,"Cc1c(C(=O)N2CCC(c3ccc4c(c3)CN(C3CCC(=O)NC3=O)C4=O)CC2)[nH]c2cc(C(C)(C)C)ccc12 (stereo not drawn) [Compound 56, 3-(5-(1-(6-(tert-butyl)-3-methyl-1H-indole-2-carbonyl)piperidin-4-yl)-1-oxoinsoindolin-2-yl)piperidine-2,6-dione]"
–,25.4,–,"CC1CC(c2ccc3c(c2)CN(C2CCC(=O)NC2=O)C3=O)CCN1C(=O)c1cc2ccc(Cl)cc2[nH]1 (stereo not drawn) [Compound 59, 3-(5-(1-(6-chloro-1H-indole-2-carbonyl)-2-methylpiperidin-4-yl)-1-oxoinsoindolin-2-yl)piperidine-2,6-dione]"
–,35,–,"Cc1c(C(=O)N2CCC(c3ccc4c(c3)CN(C3CCC(=O)NC3=O)C4=O)CC2)[nH]c2cc(N)ccc12 (stereo not drawn) [Compound 61, 3-(5-(1-(6-amino-3-methyl-1H-indole-2-carbonyl)piperidin-4-yl)-1-oxoinsoindolin-2-yl)piperidine-2,6-dione]"
–,23.8,–,"Cc1c(C(=O)N2CCC(N3CCC(c4ccc5c(c4)CN(C4CCC(=O)NC4=O)C5=O)CC3)CC2)[nH]c2cc(Cl)ccc12 (stereo not drawn) [Compound 62, 3-(5-(1-(6-chloro-3-methyl-1H-indole-2-carbonyl)-[1,4′-bipiperidin]-4-yl)-1-oxoinsoindolin-2-yl)piperidine-2,6-dione]"
–,30.7,excellent IKZF2 degradation activity,"Cc1c(C(=O)N2CC(N3CCC(c4ccc5c(c4)CN(C4CCC(=O)NC4=O)C5=O)CC3)C2)[nH]c2cc(Cl)ccc12 (stereo not drawn) [Compound 63, 3-(5-(1-(1-(6-chloro-3-methyl-1H-indole-2-carbonyl)azetidin-3-yl)piperidin-4-yl)-1-oxoinsoindolin-2-yl)piperidine-2,6-dione]"
–,109,–,"Cc1c(C(=O)N2CC=C(c3ccc4c(c3)CN(C3CCC(=O)NC3=O)C4=O)C2)[nH]c2cc(Cl)ccc12 (stereo not drawn) [Compound 65, 3-(5-(1-(6-chloro-3-methyl-1H-indole-2-carbonyl)-2,5-dihydro-1H-pyrrol-3-yl)-1-oxoinsoindolin-2-yl)piperidine-2,6-dione]"
–,87.8,–,"Cc1c(C(=O)N2CCC(n3cc(-c4ccc5c(c4)CN(C4CCC(=O)NC4=O)C5=O)nn3)CC2)[nH]c2cc(Cl)ccc12 (stereo not drawn) [Compound 66, 3-(5-(1-(1-(6-chloro-3-methyl-1H-indole-2-carbonyl)piperidin-4-yl)-1H-1,2,3-triazol-4-yl)-1-oxoinsoindolin-2-yl)piperidine-2,6-dione]"

SMILES,remaining activity at 1 µM [%],remaining activity at 10 µM [%],"IKZF2 degradation activity (in words, comment on Table 1) (as shown in Table 1)"
"O=C1CCC(N2Cc3cc(C4CC5CCC(C4)N5C(=O)c4cc5ccc(Cl)cc5[nH]4)ccc3C2=O)C(=O)N1 (stereo not drawn) [Compound 57, 3-(5-(8-(6-chloro-1H-indole-2-carbonyl)-8-azabicyclo[3.2.1]octan-3-yl)-1-oxoinsoindolin-2-yl)piperidine-2,6-dione]",–,64.5,–
